According to US12532884B2, “Fungicidal compositions” (SYNGENTA CROP PROTECTION AG, priority 2020, dated 2026):
Several values for one entry are separate records, joined by “and”; a condition that tells them apart may be missing. Identical values can stand only once. Like-named read-outs stand apart in the source and are kept apart here.

Columns and labels:
Corynespora cassiicola = assay: Example C5: mixtures against Corynespora cassiicola (target leaf spot), liquid culture; format: cell-based; details: Corynespora cassiicola, single component
Source text: (§1) Certain mixture compositions comprising a compound of formula (I) described above may show a synergistic effect. This occurs whenever the action of an active ingredient combination is greater than the sum of the actions of the individual components. The action to be expected E for a given active ingredient combination obeys the so-called COLBY formula and can be calculated as follows (COLBY, S. R. “Calculating synergistic and antagonistic responses of herbicide combination”. Weeds, Vol. 15, pages 20-22; 1967): • ppm=milligrams of active ingredient (=a.i.) per liter of spray mixture • X=% action by active ingredient A) using p ppm of active ingredient • Y=% action by active ingredient B) using q ppm of active ingredient.
(§2) According to COLBY, the expected (additive) action of active ingredients A)+B) using p+q ppm of active ingredient is:
(§3) If the action actually observed (O) is greater than the expected action (E), then the action of the combination is super-additive, i.e. there is a synergistic effect. In mathematical terms, synergism corresponds to a positive value for the difference of (O-E). In the case of purely complementary addition of activities (expected activity), said difference (O-E) is zero. A negative value of said difference (O-E) signals a loss of activity compared to the expected activity.
(§4) Mycelia fragments or conidia suspensions of a fungus prepared either freshly from liquid cultures of the fungus or from cryogenic storage, are directly mixed into nutrient broth. DMSO solutions of the test compound (max. 10 mg/mL) are diluted with 0.025% Tween20 by a factor of 50 and 10 μl of this solution is pipetted into a microtiter plate (96-well format). The nutrient broth containing the fungal spores/mycelia fragments is then added to give an end concentration of the tested compound. The test plates are incubated in the dark at 24° C. and 96% relative humidity. The inhibition of fungal growth is determined photometrically after 2 to 7 days, depending on the pathosystem, and percent antifungal activity relative to the untreated check is calculated.
Conidia of the fungus from cryogenic storage were directly mixed into nutrient broth (PDB potato dextrose broth). A DMSO solution of the test compounds was placed into a microtiter plate (96-well format) and the nutrient broth containing the fungal spores was added to it. The test plates were incubated at 24 C and the inhibition of growth was determined photometrically after 3-4 days at 620 nm.
(§5) The following mixture compositions at the reported concentration (in ppm) in tables C4-3 and C4-4 gave the following disease control in this test (Corynespora cassiicola). Fungicidal activity was evaluated on a 100-0 scale (100=no disease growth; 0=well completely covered by mycelium).

Septoria tritici = assay: Example C2: mixtures against Septoria tritici (leaf blotch), liquid culture; format: cell-based; details: Zymoseptoria tritici, single component; for inhibition at 0.1 ppm: 100-0 scale (100=no disease growth)
Source text: as §1, §2, §3, §4
(§6) Conidia of the fungus from cryogenic storage were directly mixed into nutrient broth (PDB potato dextrose broth). A DMSO solution of the test compounds was placed into a microtiter plate (96-well format) and the nutrient broth containing the fungal spores was added to it.
The following mixture compositions at the reported concentration (in ppm) in tables C2-3 to C2-5 gave the following disease control in this test Septoria tritici (leaf blotch). Fungicidal activity was evaluated on a 100-0 scale (100=no disease growth; 0=well completely covered by mycelium).

[1] = test system: Glomerella lagenarium syn. Colletotrichum lagenarium; assay: Example C4: mixtures against Glomerella lagenarium syn. Colletotrichum lagenarium (anthracnose), liquid culture; format: cell-based; details: Colletotrichum orbiculare, single component
Source text: as §1, §2, §3, §4, §6
as §5, with “(Glomerella lagenarium syn. Colletotrichum lagenarium).” for “(Corynespora cassiicola).”

Septoria glycines = assay: Example C3: mixtures against Septoria glycines (brown spot), liquid culture; format: cell-based; details: Septoria glycines, single component
Source text: This occurs whenever the action of an active ingredient combination is greater than the sum of the actions of the individual components. The action to be expected E for a given active ingredient combination obeys the so-called COLBY formula and can be calculated as follows (COLBY, S. R. “Calculating synergistic and antagonistic responses of herbicide combination”. Weeds, Vol. 15, pages 20-22; 1967): • ppm=milligrams of active ingredient (=a.i.) per liter of spray mixture • X=% action by active ingredient A) using p ppm of active ingredient • Y=% action by active ingredient B) using q ppm of active ingredient.
as §2, §3
as §4, with “The nutrient broth containing the fungal spores/mycelia fragments is then added to give an end concentration of the tested compound.” left out
as §6, with “fungus harvested” for “fungus”, “a fresh culture grown on artificial media,” for “cryogenic storage”
Fungicidal activity was evaluated on a 100-0 scale (100=no disease growth; 0=well completely covered by mycelium).

[2] = test system: Puccinia recondita (Brown rust); assay: Example B: comparative biological activity against Puccinia recondita (brown rust), curative, wheat leaf segments; format: in vivo; details: 8 dpi
Description: Method; Wheat leaf segments are placed on agar in multiwell plates (24-well format). The leaf segments are inoculated with a spore suspension of the fungus and sprayed with test solutions 1 day after inoculation. After appropriate incubation the activity of a compound is assessed 8 dpi (days after inoculation) as curative fungicidal activity.
The data are presented as the percentage of disease control of each compound for the biological tests and testing rates described below in table B1.

Phakopsora pachyrhizi = assay: Example D: preventative activity against Phakopsora pachyrhizi on soybean (whole plants sprayed, leaf disks inoculated); format: in vivo
Source text: as §1, §2, §3
Whole soybean plants are treated with the recited active ingredients 4 weeks after planting. 1 day after spraying leaf disks are cut from the first trifoliate leaf. Five repetitions at each rate are conducted. The leaf disks are inoculated with Phakopsora pachyrhizi (Asian soybean rust) one day after treatment. Evaluation of the leaf disks is conducted 11 to 14 days after inoculation and the activity is derived from the relation of the treated vs untreated, infested check. (100=no disease, no damage to the leaf, 0=high infestation, leaf damaged heavily). The rates of the active ingredients used are given in the tables as g active ingredient (a.i.)/ha.

[3] = test system: Mycosphaerella arachidis syn. Cercospora arachidicola; assay: Example C1: mixtures against Mycosphaerella arachidis syn. Cercospora arachidicola (brown leaf spot), liquid culture; format: cell-based; details: Mycosphaerella arachidis, single component, 100-0 scale (100=no disease growth)
Source text: as §1, §2, §3, §4, §6
as §5, with “C1-3” for “C4-3”, “C1-4” for “C4-4”, “Mycosphaerella arachidis syn. Cercospora arachidicola (Brown leaf spot of peanut).” for “(Corynespora cassiicola).”

CO/C=C(\Oc1cc(C2CCCC2)ccc1C)C(=O)OC [Compound X.02, methyl (Z)-2-(5-cyclopentyl-2-methyl-phenoxy)-3-methoxy-prop-2-enoate]
inhibition at 1 ppm (Corynespora cassiicola; 1 ppm): 20% | inhibition at 0.03 ppm (Septoria tritici; 100-0 scale): 0% | inhibition at 0.03125 ppm (Septoria tritici; 0.03125 ppm, 100-0 scale): 20% | inhibition at 0.0625 ppm (Septoria tritici; 0.0625 ppm, 100-0 scale): 90% | inhibition at 0.1 ppm (Septoria tritici): 70% | inhibition at 0.03 ppm [1]: 0% | inhibition at 0.1 ppm ([1]; 0.1 ppm): 20% | inhibition at 0.03 ppm (Septoria glycines; 100-0 scale (100=no disease growth)): 50% | inhibition at 0.03125 ppm (Septoria glycines; 0.03125 ppm): 70% | inhibition at 0.1 ppm (Septoria glycines; 0.1 ppm, 100-0 scale (100=no disease growth), read-out: Activity (%)): 70% | control (%) ([2]; 20 ppm): 0% | control (%) ([2]; 60 ppm): 0% | control (%) ([2]; 200 ppm): 100% | inhibition at 2.25 g/ha (Phakopsora pachyrhizi; Phakopsora pachyrhizi, foliar, applied alone, 2.25 g/ha, read-out: Observed Activity (% of untreated)): 13% | inhibition at 4.5 g/ha (Phakopsora pachyrhizi; Phakopsora pachyrhizi, foliar, applied alone, 4.5 g/ha, read-out: Observed Activity (% of untreated)): 20% | inhibition at 1.13 g/ha (Phakopsora pachyrhizi; Phakopsora pachyrhizi, foliar, single active ingredient, soybean, preventative, 100=no disease, read-out: Observed Activity (%)): 1% | inhibition at 2.25 g/ha (Phakopsora pachyrhizi; Phakopsora pachyrhizi, foliar, single active ingredient, 2.25 g/ha, read-out: Observed Activity (%)): 14% | inhibition at 2.25 g/ha (Phakopsora pachyrhizi; Phakopsora pachyrhizi, foliar, single active ingredient, 2.25 g/ha, soybean, preventative, 100=no disease, read-out: Observed Activity (%)): 23% | inhibition at 4.5 g/ha (Phakopsora pachyrhizi; Phakopsora pachyrhizi, foliar, single active ingredient, 4.5 g/ha, read-out: Observed Activity (%)): 22% | inhibition at 4.5 g/ha (Phakopsora pachyrhizi; Phakopsora pachyrhizi, foliar, single active ingredient, 4.5 g/ha, soybean, preventative, 100=no disease, read-out: Observed Activity (%)): 33% | inhibition at 9 g/ha (Phakopsora pachyrhizi; Phakopsora pachyrhizi, foliar, single active ingredient, 9 g/ha, read-out: Observed Activity (%)): 38% | inhibition at 0.03 ppm ([3]; 0.03 ppm): 50% | inhibition at 0.03125 ppm ([3]; 0.03125 ppm): 70%

CO/C=C(\Oc1cc(C2CCCCC2)ccc1C)C(=O)OC [Compound X.04, methyl (Z)-2-(5-cyclohexyl-2-methyl-phenoxy)-3-methoxy-prop-2-enoate]
inhibition at 0.2 ppm (Corynespora cassiicola; 0.2 ppm): 20% | inhibition at 0.00625 ppm (Septoria tritici; 0.00625 ppm, 100-0 scale): 0% | inhibition at 0.025 ppm (Septoria tritici; 0.025 ppm, 100-0 scale): 70% | inhibition at 0.03 ppm (Septoria tritici; 100-0 scale): 50% | inhibition at 0.1 ppm (Septoria tritici): 70% | inhibition at 0.03 ppm [1]: 0% | inhibition at 0.00625 ppm (Septoria glycines; 0.00625 ppm): 0% | inhibition at 0.025 ppm (Septoria glycines; 0.025 ppm): 90% | inhibition at 0.03 ppm (Septoria glycines): 70% | control (%) ([2]; 20 ppm): 90% | control (%) ([2]; 60 ppm): 100% | control (%) ([2]; 200 ppm): 100% | inhibition at 1.13 g/ha (Phakopsora pachyrhizi; Phakopsora pachyrhizi, foliar, applied alone, read-out: Observed Activity (% of untreated)): 20% | inhibition at 18 g/ha (Phakopsora pachyrhizi; Phakopsora pachyrhizi, foliar, applied alone, 18 g/ha, read-out: Observed Activity (% of untreated)): 74% | Observed Activity (% of untreated) (Phakopsora pachyrhizi; applied alone, 2.25 g/ha): 22% and 35% and 17% | Observed Activity (% of untreated) (Phakopsora pachyrhizi; applied alone, 4.5 g/ha): 67% and 34% and 49% and 53% | Observed Activity (% of untreated) (Phakopsora pachyrhizi; applied alone, 9 g/ha): 81% and 59% | inhibition at 0.00625 ppm ([3]; 0.00625 ppm): 0%
